From US20110028566A1, “COMPOSITIONS AND PRODUCTS CONTAINING CYCLOALIPHATIC DIOL ANTIMICROBIAL AGENTS AND METHODS OF USING THE COMPOSITIONS AND PRODUCTS” (EASTMAN CHEMICAL COMPANY, priority 2009, published 2011)
Several values for one entry are separate records, joined by “and”; a condition that tells them apart may be missing. Equal values may be shown once.

Test system: Candida albicans ATCC 10231
Assay: MIC determination and synergy testing (Kull synergy index), microplate
Type: cell-based
Parameters: QA/a: unit not given beside the values
Settings: for QA, MIC of CHDM alone / QA/a: concentration of CHDM alone (QA, MIC): C. albicans; for QA/a: concentration of CHDM alone (QA, MIC): Table 46
Description: The test cultures are listed in Table 7 along with the incubation temperatures used for growth and minimum inhibitory concentration (MIC) testing. […] C. albicans was cultured in Sabouraud dextrose broth (SDB) for approximately 44-52 hours for preparation of inoculum. A. niger was cultured on Sabouraud dextrose agar (SDA) for 3-4 days until there was confluent growth and visible spore formation. Spores were harvested from the SDA plates by flooding the surface of the plate with 5-10 mL of phosphate-buffered saline (PBS) and gently spreading the liquid across the surface of the plate with a sterile T-shaped plastic spreader (Copan Diagnostics) until there was a well-mixed suspension of spores. The resulting spore suspension was collected using a serological pipette and stored at 2-8° C. until use.
Inoculum concentration was determined by dilution plating of the cultures or spore suspension. A serial dilution in PBS was made to 10^−8 for the bacterial cultures or 10^−5 for the fungal cultures. Fifty or 100 μL of the final dilution was spread on two Trypticase-soy agar (TSA) plates for bacteria or two SDA plates for fungi. After 24 to 48 hours plates were counted and the concentrations used in each experiment were calculated.
The antimicrobial agents tested for synergy along with the respective diluents and working stock solution concentrations are shown below. For determination of MIC ranges, individual antimicrobial agent stock solutions were added to sterile medium to yield the highest level test concentrations, and then serially diluted in the medium to prepare the range of test concentrations. For synergy testing individual test concentrations were prepared in sterile medium, and then blended to form the desired combinations.
MICs were determined using a high-throughput microplate method. Individual antimicrobial agents were added to TSB (pH 7.3) for bacterial testing or SDB (pH 5.6) for fungal testing at the highest concentration to be tested. A serial dilution series was prepared at a dilution ratio of 1:1.3333 such that a one log range was covered in nine dilutions. Two-hundred microliters of the diluted antimicrobial agents were dispensed into four wells each of a sterile, 96-well, flat-bottom microplate (Nalge Nunc International). Four additional wells of the highest concentration were dispensed to serve as uninoculated high-level controls. Eight additional wells containing only broth medium were also prepared, four to serve as negative controls and four as positive controls. Three wells of each antimicrobial agent dilution were inoculated with one of the test strains in Table 7. The final well of each antimicrobial agent dilution was left uninoculated to serve as a control (and means of compensating) for any absorbance/turbidity due to the test compounds.
Microplates were inoculated using the cultures or spore suspensions prepared as described above. The S. aureus cultures were used undiluted, while the E. coli and P. aeruginosa cultures were used either undiluted or after a 1:2 dilution in sterile TSB. The C. albicans cultures were used either undiluted or following a 2-fold concentration by centrifugation. One of two means of inoculation was used to deliver a final concentration of approximately 10^5 colony-forming units (CFU)/mL of C. albicans, 10^5 spores/mL of A. niger, or 10^6 CFU/mL of bacteria. The primary method used a stainless steel pin replicator (Nalge Nunc International) mounted on a hand-operated bench-top press (Schmidt Technology Corporation) fitted with a custom-built microplate holder to dispense one microliter of each inoculum from a “master” plate containing 50-100 μL of culture into the wells of the test plate. The pin replicator was sterilized before and between inoculations by immersing in ethanol and flaming. The alternative method of inoculation was by directly pipetting 20 μL of a 1:20 dilution of each culture or spore suspension into the appropriate wells of the test plates.

Structure (SMILES): OCC1CCC(CO)CC1 (stereo not shown) [1,4-CHDM, 1,4-cyclohexanedimethanol]
- QA, MIC of CHDM alone (day 2 of incubation, plate 128B (MP series)): 3.00 weight percent
- QA, MIC of CHDM alone (day 2 of incubation, plates 116B, 240B, 252B (PE series)): 5.85 weight percent and 6.67 weight percent and 3.56 weight percent
- QA, MIC of CHDM alone (day 2 of incubation, plates 117B, 226B, 254B (CG series)): 5.63 weight percent and 5.00 weight percent and 3.56 weight percent
- QA, MIC of CHDM alone (day 3 of incubation, plate 128B (MP series)): 4.00 weight percent
- QA, MIC of CHDM alone (day 3 of incubation, plates 116B, 240B, 252B (PE series)): 4.75 weight percent and 5.85 weight percent and 6.67 weight percent
- QA, MIC of CHDM alone (day 3 of incubation, plates 117B, 254B (CG series)): 4.75 weight percent and 6.67 weight percent
- QA/a (CHDM alone (QA) or in combination with BA:DHA (a), plate 131B, day 3): 5.33
- QA/a (CHDM alone (QA) or in combination with BA:DHA (a), plate 131B, day 4): 5.33
- QA/a (CHDM alone (QA) or in combination with BA:DHA (a), plate 239B, day 2): 5.85
- QA/a (CHDM alone (QA) or in combination with BA:DHA (a), plate 239B, day 3): 5.85
- QA/a (CHDM alone (QA) or in combination with BA:DHA (a), plate 258B, day 2): 5.00
- QA/a (CHDM alone (QA) or in combination with BA:DHA (a), plate 258B, day 3): 6.67
- QA/a (CHDM alone (QA) or in combination with DMDM hydantoin (a), plate 241B, day 2): 5.85
- QA/a (CHDM alone (QA) or in combination with DMDM hydantoin (a), plate 241B, day 3): 5.85
- QA/a (CHDM alone (QA) or in combination with DMDM hydantoin (a), plate 244B, day 2): 6.00
- QA/a (CHDM alone (QA) or in combination with DMDM hydantoin (a), plate 244B, day 3): 8.00
- QA/a (CHDM alone (QA) or in combination with DMDM hydantoin (a), plate 263B, day 2): 8.00
- QA/a (CHDM alone (QA) or in combination with DMDM hydantoin (a), plate 263B, day 3): 8.00
- QA/a (CHDM alone (QA) or in combination with DMDM hydantoin (a), plate 264B, day 2): 6.67
- QA/a (CHDM alone (QA) or in combination with DMDM hydantoin (a), plate 264B, day 3): 6.67
- QA/a (CHDM: MIC alone (QA) or conc. in combination with CP (a), plate 130B, day 2): 3.00
- QA/a (CHDM: MIC alone (QA) or conc. in combination with CP (a), plate 130B, day 3): 4.00
- QA/a (CHDM: MIC alone (QA) or conc. in combination with CP (a), plate 227B, day 2): 5.63
- QA/a (CHDM: MIC alone (QA) or conc. in combination with CP (a), plate 227B, day 3): 5.63
- QA/a (CHDM: MIC alone (QA) or conc. in combination with CP (a), plate 256B, day 2): 6.67
- QA/a (CHDM: MIC alone (QA) or conc. in combination with CP (a), plate 256B, day 3): 6.67
- QA/a (CHDM: MIC alone (QA) or conc. in combination with MIT (a), plate 162B, day 3): 5.33
- QA/a (CHDM: MIC alone (QA) or conc. in combination with MIT (a), plate 200B, day 2): 6.23
- QA/a (CHDM: MIC alone (QA) or conc. in combination with MIT (a), plate 200B, day 3): 6.23
- QA/a: concentration of CHDM alone (QA, MIC) (Day 2): 4.00 weight percent and 3.38 weight percent
- QA/a: concentration of CHDM alone (QA, MIC) (Day 3): 4.50 weight percent
